The text below walks through data of US8883846B2, “Synthesis of bicyclic compounds and method for their use as therapeutic agents” (priority 2010, dated 2014).

The target of assay [1] is recombinant H1N1 neuraminidase (Influenza A virus (strain A/Puerto Rico/8/1934 H1N1), UniProt P03468). Kind of assay: biochemical. It counts as biochemical.
Assay [2] concerns the target neuraminidase of NP40-inactivated influenza A/Brisbane/59/2007(H1N1) (Influenza A virus, UniProt D5F1R0). Kind of assay: In vitro neuraminidase assay vs. NP40-inactivated influenza virus. It counts as biochemical.
The next assay has as its system neuraminidase. The note with it: background statement; cited from earlier work.
The mark [3] stands for this setting: NP40-inactivated influenza A/Brisbane/59/2007(H1N1), read-out: IC50.
The mark [4] stands for this setting: NP40-inactivated virus, Lineweaver-Burk analysis.

Values joined by “and” are separate entries in the source; they are usually repeats but may differ in a detail not shown here. Equal values may be shown once. Read-outs that look alike come from different tables or passages of the source.

What is called IC50 is the midpoint of a concentration-inhibition curve.

recombinant H1N1 neuraminidase, sequence (P03468 36-454 limits assumed): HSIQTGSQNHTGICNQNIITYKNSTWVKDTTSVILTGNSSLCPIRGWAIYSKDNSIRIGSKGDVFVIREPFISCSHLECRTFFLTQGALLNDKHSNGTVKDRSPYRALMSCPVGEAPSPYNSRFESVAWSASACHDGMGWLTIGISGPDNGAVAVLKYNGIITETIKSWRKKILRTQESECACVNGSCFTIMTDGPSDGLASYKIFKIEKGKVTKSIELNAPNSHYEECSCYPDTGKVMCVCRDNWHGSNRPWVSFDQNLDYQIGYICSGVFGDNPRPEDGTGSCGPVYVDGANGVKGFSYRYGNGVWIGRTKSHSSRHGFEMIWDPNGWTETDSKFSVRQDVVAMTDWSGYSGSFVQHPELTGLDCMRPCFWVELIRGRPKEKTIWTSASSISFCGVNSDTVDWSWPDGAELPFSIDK
neuraminidase of NP40-inactivated influenza A/Brisbane/59/2007(H1N1), sequence (D5F1R0 1-470): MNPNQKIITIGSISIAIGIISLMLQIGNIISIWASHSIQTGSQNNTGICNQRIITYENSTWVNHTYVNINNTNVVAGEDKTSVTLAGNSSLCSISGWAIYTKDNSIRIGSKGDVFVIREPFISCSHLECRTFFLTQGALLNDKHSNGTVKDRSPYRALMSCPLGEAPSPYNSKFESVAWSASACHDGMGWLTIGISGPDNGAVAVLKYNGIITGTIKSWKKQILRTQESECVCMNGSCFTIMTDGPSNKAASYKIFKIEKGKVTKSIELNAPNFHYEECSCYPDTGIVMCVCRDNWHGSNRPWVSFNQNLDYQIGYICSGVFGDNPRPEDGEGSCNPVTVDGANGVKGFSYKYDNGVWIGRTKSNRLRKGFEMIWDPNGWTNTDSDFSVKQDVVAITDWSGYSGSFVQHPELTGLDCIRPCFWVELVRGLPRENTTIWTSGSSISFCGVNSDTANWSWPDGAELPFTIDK

`C[C@@H]1C[C@](O)(C(=O)O)[C@H]2C[C@H](Cc3ccccc3)S(=O)(=O)[C@@H]12` [Compound 21]: in assay [1], the half-inhibitory concentration (IC50) is greater than 10000 µM.

As to `N=C(N)N[C@@H]1C[C@](O)(C(=O)O)[C@H]2CCS(=O)(=O)[C@@H]12` [Compound 27], the IC50 in assay [2] (setting [3]) was 3700 µM and 3800 µM. The “Inhibition Mode” value in assay [2] (setting [4]) is reported as “competitive”. The Ki in assay [2] (NP40-inactivated virus, estimated from Km versus inhibitor concentration, read-out: Ki) is 1000 µM.

On to `CCC(CC)[C@H](NC(C)=O)[C@@H]1[C@H](O)[C@@H](C(=O)O)C[C@H]1N=C(N)N` [peramivir], for which the “potency relative to oseltamivir” value in the assay on neuraminidase is recorded as “roughly ten-fold”.

Consider `CC(=O)N[C@H]1CS(=O)(=O)[C@H]2[C@@H]1[C@H](NC(=N)N)C[C@@H]2C(=O)O` [Compound 32], for which, in assay [2], the “Inhibition Mode” value is “competitive” and the Ki was 5 µM. Also, the IC50 in assay [2] (IC50) came out at 30 µM.

Turning to `CC(=O)N[C@H]1CS(=O)(=O)[C@H]2[C@@H]1[C@H](N)C[C@@H]2C(=O)O` [Compound 31], the IC50 in assay [2] (setting [3]) is 92 µM. For the same compound, in assay [2] (setting [4]), the “Inhibition Mode” value is recorded as “competitive”.

As to `CCOC(=O)C1=C[C@@H](OC(CC)CC)[C@H](NC(C)=O)[C@@H](N)C1` [oseltamivir], the “effective concentration as neuraminidase inhibitor” value in the assay with neuraminidase is recorded as “around 1 nM”.

On to `C[C@@H]1C[C@](O)(C(=O)O)[C@H]2CCS(=O)(=O)[C@@H]12` [Compound 20], for which, in assay [1], the IC50 is 4000 µM, the “Inhibition Mode” value is reported as “mixed” and the “inhibition of commercially available recombinant H1N1 neuraminidase” value is given as “dose-dependent inhibition”.
